In paper PMC5779714, “Metallochaperone UreG serves as a new target for design of urease inhibitor: A novel strategy for development of antimicrobials” (PLoS Biology, 2018):
Where two headings read alike, the source gives them in different places.

Key:
[1] = system: H. pylori; assay: Growth of H. pylori in neutral and acidic brucella broth (OD600); format: cell-based; details: for OD600(pH5): acidic brucella broth pH 5.0, 24 h, control 0.93
[2] = molecular target: T1, UreG (Helicobacter pylori, UniProt Q09066); assay: biochemical; format: binding, H. pylori
T1 sequence (Q09066 whole entry): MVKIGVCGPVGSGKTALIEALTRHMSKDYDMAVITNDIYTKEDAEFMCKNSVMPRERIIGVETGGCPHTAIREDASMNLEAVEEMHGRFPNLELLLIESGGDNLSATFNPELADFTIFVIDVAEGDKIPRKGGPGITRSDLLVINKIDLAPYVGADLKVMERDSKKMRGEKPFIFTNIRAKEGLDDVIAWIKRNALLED

[3] = molecular target: T1, UreG; assay: Fluorescence-quenching titration of UreG (Kd); format: binding, H. pylori
Protocol: Using the relation between the emission intensity at 310 nm and molecule-UreG–bound species, as well as one site-binding model, the Kd values were calculated by a logistic regression model referring to a previous report. […] All fluorescence readings were corrected for the dilution effect.

[4] = molecular target: T1, UreG; assay: Nickel binding of UreG (UV absorption at 337 nm) in presence of compounds; design: species or system H. pylori; details: for percentage of Ni(II)-bound UreG: UreG 5 μM
Protocol: We further investigated whether binding of cmpd4 or cmpd8 to the guanine nucleotide binding pocket perturbed the Ni(II) coordination to the protein. Considering that coordination of Ni(II) to UreG results in a (Cys)→Ni(II) LMCT band centered at about 337 nm, we monitored the UV absorption of UreG samples (5 μM) at 337 nm upon titration of nickel with or without the supplement of cmpd4 or cmpd8. As shown in S19 Fig, cmpd4 at a ratio of [cmpd4]/[UreG] of 5 and 10 reduced the percentages of Ni(II)-bound UreG to ca. 75% and 30%, respectively, and a similar phenomenon was also observed for cmpd8 (S19 Fig), indicative of the disruption of nickel binding property of UreG through targeting nucleotide binding site.
Supplementary file pbio.2003887.s021.png: S19 Fig Effect of cmpd4 and cmpd8 on nickel binding property of UreG. UreG (5 μM) in HEPES buffer (5 μM GTP, 1 mM MgSO4) was titrated with NiSO4 in the presence of cmpd4 or cmpd8 at various concentrations. Titration of nickel ion into UreG samples led to the increasing of absorption at 337 nm, the highest of which was set as 100% for the percentage of Ni-bound UreG. The supplement of cmpd4 and cmpd8 reduced the percentage of Ni-bound UreG. […] (PNG) Click here for additional data file.

[5] = system: AGS cells exposed to H. pylori; assay: Cell infection model: AGS cells exposed to H. pylori pre-cultured with inhibitors; format: cell-based, human; details: for Normalized cell survival (%): H. pylori pre-cultured with 10 μM inhibitor 24 h, MOI 20, 24 h infection, Hp alone 28.8%
[6] = system: AGS cells with H. pylori infection; assay: AGS cells with H. pylori infection, inhibitors administrated to the AGS cells (S20 Fig); format: cell-based, human; details: 10 μM administrated to AGS cells with H. pylori infection
Description: As expected, low viability of AGS with the supplement of cmpd4 and cmpd8 was observed due to the toxicity of small compounds to mammalian cells. […] (PNG) Click here for additional data file.

## Cc1cccc(N2CCN(C(=O)c3cc(S(=O)(=O)N(C)C)ccc3N3CCCC3)CC2)c1C [cmpd4]
[1]
  OD600(pH5): 0.46
[1]; listed as cmp4
  OD600(pH5): 0.464
[1]; neutral medium, 24 h, control 0.18
  OD600 (pH7): 0.141
[2]
  Normalized fluo: 0.61
[2]; UreG + compound 50μM, Temperature 30.19
  Normalized fluo: 4.76
[2]; UreG + compound 50μM, Temperature 30.56
  Normalized fluo: 4.12
[2]; UreG + compound 50μM, Temperature 30.94
  Normalized fluo: 3.54
[2]; UreG + compound 50μM, Temperature 31.33
  Normalized fluo: 2.90
[2]; UreG + compound 50μM, Temperature 31.72
  Normalized fluo: 2.50
[2]; UreG + compound 50μM, Temperature 32.09
  Normalized fluo: 2.10
[2]; UreG + compound 50μM, Temperature 32.47
  Normalized fluo: 1.61
[2]; UreG + compound 50μM, Temperature 32.85
  Normalized fluo: 1.32
[2]; UreG + compound 50μM, Temperature 33.30
  Normalized fluo: 0.93
[2]; UreG + compound 50μM, Temperature 33.65
  Normalized fluo: 0.64
[2]; UreG + compound 50μM, Temperature 34.08
  Normalized fluo: 0.41
[2]; UreG + compound 50μM, Temperature 34.47
  Normalized fluo: 0.19
[2]; UreG + compound 50μM, Temperature 34.84
  Normalized fluo: 0.16
[2]; UreG + compound 50μM, Temperature 35.21
  Normalized fluo: 0.06
[2]; UreG + compound 50μM, Temperature 35.58
  Normalized fluo: 3.2e-7
[2]; UreG + compound 50μM, Temperature 35.96
  Normalized fluo: 0.09
[2]; UreG + compound 50μM, Temperature 36.34
  Normalized fluo: 0.11
[2]; UreG + compound 50μM, Temperature 36.71
  Normalized fluo: 0.29
[2]; UreG + compound 50μM, Temperature 37.48
  Normalized fluo: 0.97
[2]; UreG + compound 50μM, Temperature 37.86
  Normalized fluo: 1.58
[2]; UreG + compound 50μM, Temperature 38.23
  Normalized fluo: 2.12
[2]; UreG + compound 50μM, Temperature 38.61
  Normalized fluo: 2.84
[2]; UreG + compound 50μM, Temperature 38.99
  Normalized fluo: 3.60
[2]; UreG + compound 50μM, Temperature 39.38
  Normalized fluo: 4.60
[2]; UreG + compound 50μM, Temperature 39.76
  Normalized fluo: 5.58
[2]; UreG + compound 50μM, Temperature 40.14
  Normalized fluo: 6.65
[2]; UreG + compound 50μM, Temperature 40.52
  Normalized fluo: 7.99
[2]; UreG + compound 50μM, Temperature 40.91
  Normalized fluo: 9.53
[2]; UreG + compound 50μM, Temperature 41.29
  Normalized fluo: 11.09
[2]; UreG + compound 50μM, Temperature 41.66
  Normalized fluo: 12.65
[2]; UreG + compound 50μM, Temperature 42.04
  Normalized fluo: 14.59
[2]; UreG + compound 50μM, Temperature 42.42
  Normalized fluo: 16.59
[2]; UreG + compound 50μM, Temperature 42.81
  Normalized fluo: 18.72
[2]; UreG + compound 50μM, Temperature 43.18
  Normalized fluo: 21.02
[2]; UreG + compound 50μM, Temperature 43.56
  Normalized fluo: 23.41
[2]; UreG + compound 50μM, Temperature 43.94
  Normalized fluo: 25.90
[2]; UreG + compound 50μM, Temperature 44.33
  Normalized fluo: 28.66
[2]; UreG + compound 50μM, Temperature 44.71
  Normalized fluo: 31.01
[2]; UreG + compound 50μM, Temperature 45.09
  Normalized fluo: 34.36
[2]; UreG + compound 50μM, Temperature 45.47
  Normalized fluo: 37.25
[2]; UreG + compound 50μM, Temperature 45.85
  Normalized fluo: 40.25
[2]; UreG + compound 50μM, Temperature 46.23
  Normalized fluo: 43.53
[2]; UreG + compound 50μM, Temperature 46.60
  Normalized fluo: 46.72
[2]; UreG + compound 50μM, Temperature 46.99
  Normalized fluo: 50.00
[2]; UreG + compound 50μM, Temperature 47.37
  Normalized fluo: 53.25
[2]; UreG + compound 50μM, Temperature 47.75
  Normalized fluo: 56.55
[2]; UreG + compound 50μM, Temperature 48.13
  Normalized fluo: 59.79
[2]; UreG + compound 50μM, Temperature 48.52
  Normalized fluo: 62.98
[2]; UreG + compound 50μM, Temperature 48.89
  Normalized fluo: 66.11
[2]; UreG + compound 50μM, Temperature 49.28
  Normalized fluo: 69.46
[2]; UreG + compound 50μM, Temperature 49.65
  Normalized fluo: 72.30
[2]; UreG + compound 50μM, Temperature 50.04
  Normalized fluo: 75.42
[2]; UreG + compound 50μM, Temperature 50.42
  Normalized fluo: 78.05
[2]; UreG + compound 50μM, Temperature 50.80
  Normalized fluo: 80.94
[2]; UreG + compound 50μM, Temperature 51.19
  Normalized fluo: 83.37
[2]; UreG + compound 50μM, Temperature 51.56
  Normalized fluo: 85.74
[2]; UreG + compound 50μM, Temperature 51.96
  Normalized fluo: 88.30
[2]; UreG + compound 50μM, Temperature 52.34
  Normalized fluo: 90.21
[2]; UreG + compound 50μM, Temperature 52.72
  Normalized fluo: 92.02
[2]; UreG + compound 50μM, Temperature 53.10
  Normalized fluo: 93.58
[2]; UreG + compound 50μM, Temperature 53.48
  Normalized fluo: 95.15
[2]; UreG + compound 50μM, Temperature 53.86
  Normalized fluo: 96.31
[2]; UreG + compound 50μM, Temperature 54.24
  Normalized fluo: 97.30
[2]; UreG + compound 50μM, Temperature 54.62
  Normalized fluo: 98.18
[2]; UreG + compound 50μM, Temperature 55.00
  Normalized fluo: 98.87
[2]; UreG + compound 50μM, Temperature 55.38
  Normalized fluo: 99.53
[2]; UreG + compound 50μM, Temperature 55.77
  Normalized fluo: 100.00
[2]; read-out: thermal shift on the melting temperature of UreG
  ΔTm at 50 µM: ~2.5 °C
[3]
  Kd: 10.6 ± 2.3 µM
[3]; log(ligand[μM]) 0
  fluorescence intensity (a.u.): 2682 a.u.
[3]; log(ligand[μM]) 0.30103
  fluorescence intensity (a.u.): 2455.33 a.u.
[3]; log(ligand[μM]) 0.60206
  fluorescence intensity (a.u.): 2056.33 a.u.
[3]; log(ligand[μM]) 0.90309
  fluorescence intensity (a.u.): 1714.67 a.u.
[3]; log(ligand[μM]) 1.20412
  fluorescence intensity (a.u.): 1176.67 a.u.
[3]; log(ligand[μM]) 1.50515
  fluorescence intensity (a.u.): 615.233 a.u.
[3]; log(ligand[μM]) 1.80618
  fluorescence intensity (a.u.): 297.433 a.u.
[3]; log(ligand[μM]) -0.30103
  fluorescence intensity (a.u.): 2867.67 a.u.
[3]; log(ligand[μM]) -0.60206
  fluorescence intensity (a.u.): 2962.67 a.u.
[3]; log(ligand[μM]) -1.30103
  fluorescence intensity (a.u.): 3018 a.u.
[4]; [cmpd4]/[UreG] of 5
  percentage of Ni(II)-bound UreG: ca. 75%
[4]; [cmpd4]/[UreG] of 10
  percentage of Ni(II)-bound UreG: ~30%
[4]; [compound]/[UreG] 5, Ni 0 μM
  absorption at 337 nm: 5.14E-05
[4]; [compound]/[UreG] 5, Ni 1 μM
  absorption at 337 nm: 0.00539
[4]; [compound]/[UreG] 5, Ni 2 μM
  absorption at 337 nm: 0.00942
[4]; [compound]/[UreG] 5, Ni 3 μM
  absorption at 337 nm: 0.01515
[4]; [compound]/[UreG] 5, Ni 4 μM
  absorption at 337 nm: 0.01614
[4]; [compound]/[UreG] 5, Ni 5 μM
  absorption at 337 nm: 0.01885
[4]; [compound]/[UreG] 5, Ni 6 μM
  absorption at 337 nm: 0.02176
[4]; [compound]/[UreG] 5, Ni 7 μM
  absorption at 337 nm: 0.02335
[4]; [compound]/[UreG] 5, Ni 8 μM
  absorption at 337 nm: 0.02298
[4]; [compound]/[UreG] 10, Ni 0 μM
  absorption at 337 nm: -8.22E-04
[4]; [compound]/[UreG] 10, Ni 1 μM
  absorption at 337 nm: 0.00376
[4]; [compound]/[UreG] 10, Ni 2 μM
  absorption at 337 nm: 0.00766
[4]; [compound]/[UreG] 10, Ni 3 μM
  absorption at 337 nm: 0.00856
[4]; [compound]/[UreG] 10, Ni 4 μM
  absorption at 337 nm: 0.00995
[4]; [compound]/[UreG] 10, Ni 5 μM
  absorption at 337 nm: 0.01042
[4]; [compound]/[UreG] 10, Ni 6 μM
  absorption at 337 nm: 0.01062
[4]; [compound]/[UreG] 10, Ni 7 μM
  absorption at 337 nm: 0.01073
[4]; [compound]/[UreG] 10, Ni 8 μM
  absorption at 337 nm: 0.00864
[5]
  Normalized cell survival (%): 70.3% ± 11.3%
[5]; listed as cmp4
  Normalized cell survival (%): 70.2703%
[5]; H. pylori pre-cultured with 10 μM inhibitor, urea 10 mM, 24 h, Hp alone ca. 2.5 mM
  Ammonia in medium (mM): around 1.1 mM
[5]; H. pylori pre-cultured with 10 μM inhibitor, urea 10 mM, 24 h, Hp alone ca. 2.5 mM, listed as cmp4
  Ammonia in medium: 1.1872 mM
[6]
  Ammonia in medium: 0.3373 mM
  Normalized cell survival (%): low viability
[6]; listed as cmp4
  Normalized cell survival (%): 22.5225%
